Data: patent publication US20260021158A1, “GRANULAR COMPOSITIONS COMPRISING A PEPTIDE AND USES THEREOF” (TARSIER PHARMA LTD., priority 2022, published 2026)

Assay: Assay of physical mixtures and extrudates for API stability by HPLC-UV
Assay type: physicochemical
Conditions: after the grinding and sieving process as well as extrusion; physical mixture and extrudate
Procedure: Physical mixtures were assayed for drug load and stability post grinding and sieving. 5 mg of sample was weighed into an aluminum weighing boat and transferred to a low-binding Eppendorf, followed by the addition of 50 uL of ACN. This was vortexed vigorously until the polymer had dissolved and the API precipitated. Next, water was added and the mixture vortexed vigorously again until the API dissolved completely, and polymer had precipitated. For the 18% drug loaded physical mixtures, 2950 μL water was added and for the 9% drug loaded physical mixtures, 1450 μL water was added. Lastly, the Eppendorfs were centrifuged for 30 seconds at a speed of 5′000 RPM.
Extrudates were assayed for drug load and stability by cutting them to specific weights to give the same end concentration as the standards (net peptide concentration of 0.3 mg/mL) after the addition of diluent. […] Lastly, the Eppendorfs were centrifuged and supernatants analyzed.
Drug load and stability of API in the extrudates were quantified by HPLC-UV as describe above. […] Additionally, the homogeneity of the entire length of the extrudate was assessed by cutting and weighing three 3 mm pieces from each section from 1 to 16 (N=16, n=3) and assaying in the same way as outlined above (Assay of physical mixtures by HPLC-UV). Lastly, the average diameter of the extrudates was measured by caliper.

C[C@@H](O)[C@H](NN)C(=O)N[C@@H](CCCCN)C(=O)N1CCC[C@H]1C(=O)N[C@@H](CCCNC(=N)N)C(=O)C(=O)CNNC(Cc1ccc(O)c(/N=N/c2ccc(OP(=O)([O-])OCC[N+](C)(C)C)cc2)c1)C(=O)O (stereo partly shown) [PTC, Dazdotuftide]
stability of API after processing: stable
